Test results as given in patent US20140018316A1, “OPHTHALMIC PHARMACEUTICAL COMPOSITION” (Hayashibara Co., Ltd., priority 2005, published 2014).

What was measured:
[1] = test system: pig lens; assay: Swelling and cloudiness of extracted pig lenses soaked in test or control solutions (traumatic cataract model); design: key to degree of cloudiness in the lens (relative value): relative gray-scale density; uninjured lens in saline at start = 10; conditions: for degree of cloudiness in the lens (relative value) / swelling of the lens: 100 mM in physiological saline
Experimental: Using an injured pig lens employed as a model for traumatic cataract, the influence of cyclic tetrasaccharide on the cloudiness in the lens was experimented as follows: A test solution was previously prepared by dissolving a cyclic tetrasaccharide crystal, penta hydrate, which had been prepared by the method in the later described Reference for Example 2, in physiological saline into a physiological saline containing 100 mM cyclic tetrasaccharide. As a positive control, a physiological saline containing 100 mM α,α-trehalose, a reagent grade specimen, commercialized by Hayashibara Biochemical Laboratories, Inc., Okayama, Japan, was used; andasanegativecontrol, physiological saline was used. Two milliliter aliquots of any one of the above three kinds of aqueous solutions were added to every two wells in respective commercialized 24-well culture plates. In one of the two wells containing the same kind of solution in each plate was placed a pig lens, which had been obtained from a slaughter-house, extracted by incision within three hours after the obtention and without injuring, and washing the extracted lens with physiological saline; while in the other of the two wells was placed a pig lens, which had been prepared by the same procedure as in the above but injured with a 27-gauge injection needle (commercialized by Terumo Co., Tokyo, Japan) to form an injured line, about one millimeter in length. These lens were allowed to stand at ambient temperature and macroscopically and microscopically observed their change in the degree of cloudiness and in the shape of swelling, etc. This experiment was run in a triplicate manner, and the macroscopic and microscopic observations were done just after (0), 1 hour, 2 hours, 6 hours, and 24 hours after the lenses were placed in the wells, and then observed daily over 28 days. A similar experiment was further conducted using a physiological saline containing 75 mM, 50 mM, 20 mM, 10 mM, or 1 mM cyclic tetrasaccharide and a lens that had not been injured with the injection needle. The degree of cloudiness in each lens, observed with “STEREOMICROSCOPE SZX12”, a product name of a stereomicroscope commercialized by Olympus Co., Tokyo, Japan, was expressed by photographing a transmitted light image of each lens with “PENGUIN 150CL”, a digital camera commercialized by Pixela Co., Tokyo, Japan, capturing the transmitted image by a computer using a view finder commercialized by Olympus Co., Tokyo, Japan, and expressing numerically the degree of light and shade of the captured image as a gray-scale using “Scion Image for Windows Beta 4.0.2”, a software commercialized by Scion Co., Maryland, U.S.A., to obtain a mean density for each lens. The time course change in the degree of cloudiness in each lens placed in each solution was expressed with a relative value, regarding the degree of cloudiness, just after the lens free of injury had been placed in physiological saline, as 10. The change of cloudiness and swelling are respectively in Tables 1 and 2. In Table 1, there show only the results from time 0 hour through two days and from days 7, 14 and 28.

[2] = test system: circular corneal fragment extracted from a pig eye ball; assay: Corneal walleye/cloudiness and edema of pig corneal fragments soaked in test or control solutions; design: degree of corneal walleye/cloudiness (relative value): scale not given here; key to corneal edema: ◯: Corneal edema was observed.; —: No corneal edema was observed; conditions: for corneal edema / degree of corneal walleye/cloudiness (relative value): 100 mM in physiological saline
Experimental: Experiment to examine the influence of cyclic tetrasaccharide on corneal walleye/cloudiness was conducted as follows: A physiological saline containing 100 mM cyclic tetrasaccharide was previously prepared for use as a test solution by dissolving a cyclic tetrasaccharide crystal, pentahydrate, which had been prepared by the later described method in Example for Reference 2. As a positive control solution, it was prepared a physiological saline containing 100 mM α,α-trehalose, a reagent grade specimen, commercialized by Hayashibara Biochemical Laboratories, Inc., Okayama, Japan; and as a negative control solution, physiological saline was used. Two milliliters of any one of the above three kinds of aqueous solutions were added to respective two wells in a commercialized 24-well culture plate. To each well in each culture plate a circular corneal fragment, which had been extracted from a pig eye ball obtained from a slaughterhouse by using a trephine for corneal transplantation, was placed and macroscopically and microscopically observed for changing in both the degree of corneal walleye/cloudiness and the change of corneal shape such as corneal edema. The macroscopic and microscopic observations were done just after the corneas were placed in the wells at (0) and at 1, 2, 6, 24, 48 and 72 hours after their placing. The methods of macroscopic and microscopic observations and the analysis of the time course change of corneal walleye/cloudiness were conducted by the same ones as used in Experiment 1. Tables 3 and 4 show the transition of corneal walleye/cloudiness and that of the corneal edema, respectively.

OC[C@H]1O[C@H](O[C@H]2O[C@H](CO)[C@@H](O)[C@H](O)[C@H]2O)[C@H](O)[C@@H](O)[C@@H]1O [Positive control solution, α,α-trehalose, reference compound]
degree of cloudiness in the lens (relative value) ([1]; injured lens, 1 hour): 10 | degree of cloudiness in the lens (relative value) ([1]; injured lens, 2 hours): 10 | degree of cloudiness in the lens (relative value) ([1]; injured lens, 6 hours): 15 | degree of cloudiness in the lens (relative value) ([1]; injured lens, 24 hours): 46 | degree of cloudiness in the lens (relative value) ([1]; injured lens, 2 days): 89 | swelling of the lens ([1]; injured lens, 2 days): ◯ (swelling was observed) | degree of cloudiness in the lens (relative value) ([1]; injured lens, time 0): 10 | degree of cloudiness in the lens (relative value) ([1]; no injury, 1 hour): 13 | degree of cloudiness in the lens (relative value) ([1]; no injury, 2 hours): 13 | degree of cloudiness in the lens (relative value) ([1]; no injury, 6 hours): 12 | degree of cloudiness in the lens (relative value) ([1]; no injury, 24 hours): 14 | degree of cloudiness in the lens (relative value) ([1]; no injury, 2 days): 19 | degree of cloudiness in the lens (relative value) ([1]; no injury, 7 days): 36 | degree of cloudiness in the lens (relative value) ([1]; no injury, 14 days): 39 | degree of cloudiness in the lens (relative value) ([1]; no injury, 28 days): 75 | swelling of the lens ([1]; no injury, 28 days): ◯ (swelling was observed) | degree of cloudiness in the lens (relative value) ([1]; no injury, time 0): 10 | swelling of the lens (in words) ([1]; 100 mM, injured lens, 2 days after initiating observation): observed to have swelling from 2 days | cloudiness in the lens compared with the negative control solution ([1]; 100 mM, lenses with no injury): inhibited | swelling of the lens (in words) ([1]; 100 mM, lenses with no injury, on 28 days): swelling of the lenses was macroscopically observed | corneal edema ([2]; 1 hour): — | degree of corneal walleye/cloudiness (relative value) ([2]; 1 hour): 11 | corneal edema ([2]; 2 hours): — | degree of corneal walleye/cloudiness (relative value) ([2]; 2 hours): 11 | corneal edema ([2]; 6 hours): — | degree of corneal walleye/cloudiness (relative value) ([2]; 6 hours): 13 | corneal edema ([2]; 24 hours): ◯ | degree of corneal walleye/cloudiness (relative value) ([2]; 24 hours): 30 | corneal edema ([2]; 48 hours): ◯ | degree of corneal walleye/cloudiness (relative value) ([2]; 48 hours): 60 | corneal edema ([2]; 72 hours): ◯ | degree of corneal walleye/cloudiness (relative value) ([2]; 72 hours): 70 | corneal edema ([2]; time 0): — | degree of corneal walleye/cloudiness (relative value) ([2]; time 0): 10 | corneal edema (in words) ([2]; 100 mM, at 24 hours): macroscopic corneal edema
